Measurements: paper PMC11193019, “Transient kinetics reveal the mechanism of competitive inhibition of the neutral amino acid transporter ASCT2” (The Journal of Biological Chemistry, 2024)
Numbering of substitutions follows the chain as printed.

Experiments:
Assay type in all cases: cell-based
ASCT2 (rASCT2) [1] = biological target: T1, ASCT2 (rASCT2) (Rattus norvegicus, UniProt D3ZJ25, D489N); test: whole-cell patch clamp, anion current dose response at […] Na+
T1 construct: gene Slc1a5; rASCT2 mutant expressed in HEK293T cells
T1 sequence (D3ZJ25 1-555 D489N): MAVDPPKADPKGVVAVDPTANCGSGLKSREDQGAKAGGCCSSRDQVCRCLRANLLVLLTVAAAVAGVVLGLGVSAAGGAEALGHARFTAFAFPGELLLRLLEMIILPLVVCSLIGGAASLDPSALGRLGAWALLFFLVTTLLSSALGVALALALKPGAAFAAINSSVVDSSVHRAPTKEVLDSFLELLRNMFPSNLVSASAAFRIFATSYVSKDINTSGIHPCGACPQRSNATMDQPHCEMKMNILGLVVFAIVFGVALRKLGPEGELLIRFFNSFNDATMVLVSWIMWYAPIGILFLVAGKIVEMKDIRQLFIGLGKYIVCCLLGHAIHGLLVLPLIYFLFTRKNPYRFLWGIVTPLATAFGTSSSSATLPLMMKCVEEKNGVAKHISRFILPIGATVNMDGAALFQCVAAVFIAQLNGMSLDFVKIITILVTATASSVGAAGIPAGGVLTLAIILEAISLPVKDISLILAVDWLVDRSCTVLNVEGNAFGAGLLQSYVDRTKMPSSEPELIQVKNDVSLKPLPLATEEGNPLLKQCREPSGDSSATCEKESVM

ASCT2 (rASCT2) [2] = biological target: T2, ASCT2 (rASCT2) (Rattus norvegicus, UniProt D3ZJ25, D402N); test: as above
T2 construct: gene Slc1a5; rASCT2 mutant expressed in HEK293T cells
T2 sequence (D3ZJ25 1-555 D402N): T1 sequence (D3ZJ25 1-555 D489N) with D402N, N489D

ASCT2 (rASCT2) [3] = biological target: T3, ASCT2 (rASCT2) (Rattus norvegicus, UniProt D3ZJ25); test: whole-cell patch clamp (leak anion current block dose response; rapid solution exchange and displacement by serine)
T3 construct: gene Slc1a5; rASCT2 cDNA in pBK-CMV, expressed in HEK293T cells
T3 sequence (D3ZJ25 1-555): T1 sequence (D3ZJ25 1-555 D489N) with N489D

With `O=C(O[C@@H]1CN[C@H](C(=O)O)C1)c1ccc(-c2ccccc2)cc1` [Lc-BPE, L-cis hydroxyproline biphenyl ester] the IC50 (ASCT2 (rASCT2) [1]) was 4.4 ± 0.8 µM, the IC50 (ASCT2 (rASCT2) [2]) was 1.6 ± 0.1 µM and the IC50 (ASCT2 (rASCT2) [3]) was 0.83 ± 0.2 µM.
